Reference: paper PMC13339814 (Microbiology Spectrum, 2026)
Entries after “also recorded” stand apart in the source; their conditions may differ. One block for each substance: values may come before it. Where no end group is shown, it is not given here. The star is where a group is joined. pNA = O=[N+]([O-])c1ccc(N*)cc1; Cbz = O=C(OCc1ccccc1)*

Experiments:
[1] = test system: PSP692; assay: purified PSP692 (1 µM) in 1× phosphate-buffered saline (PBS) at pH 6.0; settings: Segatella copri, 37°C
[2] = test system: human gastrointestinal proteases; assay: human gastrointestinal proteases; settings: cited from earlier work
[3] = test system: PSP692; assay: purified recombinant PSP692 in pH 6 PBS buffer; settings: Segatella copri, 37°C, up to 4 h
[4] = test system: PSP464; assay: purified PSP464 (1 µM) in 100 mM glycine-HCl buffer at pH 4.0; settings: Stenotrophomonas maltophilia, 37°C
[5] = test system: PSP464; assay: HRMS analysis of 11-mer gliadin peptide degradation by PSP464; type: in vitro ADME, Stenotrophomonas maltophilia
Experimental: Gliadin degradation reactions were performed in duplicate for PSP464 activity on the 11-mer and PSP692 activity on the 33-mer at time points of 30 min, 1 h, 2 h, and 4 h. Following incubation, duplicate reactions were pooled prior to downstream processing to minimize technical variability. Reactions were quenched by the addition of trifluoroacetic acid (TFA) in water to a final concentration of 0.1% (vol/vol). To remove intact enzyme and retain low-molecular-weight degradation products, samples were centrifuged through Microcon centrifugal filter units with a 10 kDa MWCO at room temperature for 30 min. The filtrate, containing peptides <10 kDa, was collected and subjected to C18 ZipTip protocol for desalting prior to LC-MS/MS analysis. The elution solvent for desalting was 50% acetonitrile with 0.1% formic acid in water.
Samples were analysed on a Bruker IMPACT HD mass spectrometer in HRMS mode. MS scans were acquired over an m/z range of 50–3,500 at high resolution in positive ion mode. Raw data were processed in MZMine v3.9 ([38]), and the fragment list was exported as an Excel list followed by manual annotation. Chromatograms were generated for identified gliadin-derived peptides across the time course.

- cleaved bond [1]: Pro-pNA
Substance: Cbz-Gly-Pro-pNA

Substance: LQLQPFPQPQLPYPQPQLPYPQPQLPYPQPQPF
- not cleaved [2]: evades degradation by human gastrointestinal proteases
- fragment found [3]: LQLQP, major, 30 min; also recorded: QPFPQ; also recorded: QLQPFP, major, 30 min

- cleaved bond [4]: Phe-pNA
Substance: Cbz-Pro-Pro-Phe-pNA

Substance: GPQQSFPEQEA [11-mer]
- intensity of parent peak (m/z ~1,218, +1) after incubation with PSP464 ([5]; all digestion time points, 30 min to 4 h, pooled duplicates): reduced
- peptide fragments formed from 11-mer by PSP464 (m/z 998 and 872) ([5]; sequential C-terminal cleavage, sequences assigned from m/z): GPQQSFPEQ and GPQQSFPE
